This note sets out measurements from ChEMBL document CHEMBL1201862, “PubChem BioAssay data set” (2004).

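Exposure lasted 48 hours, with cells grown in 96-well plates and compounds tested at five concentrations. Here, GI50 denotes the concentration required for 50% inhibition of growth.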 Calls of active or inactive are those of the source. Rule as the data show it: active = GI50 up to about 1.1 µM and inactive = higher.

Holding throughout (assay): DTP human tumour cell line panel, 48 h
The test system of test [1] is NCI-H460.
For test [2], the system named is KM12.
Test [3] deals with NCI-H23.
Test [4] has as its system UACC-62.
Test [5] deals with OVCAR-4.
In test [6] the test system is SF-539.
The test system of test [7] is SF-295.
Test [8] concerns HCT-116.
The test system of test [9] is SR.
For test [10], the system named is HCC 2998.
In test [11] the test system is SNB-19.
The test system of test [12] is DMS-273.
Test [13] concerns A498.
Test [14] relates to MDA-MB-231.
For test [15], the system named is MDA-N.
In test [16] the test system is MOLT-4.
The test system of test [17] is SF-268.
The test system of test [18] is PC-3.
The subject of test [19] is SK-MEL-5.
For test [20], the system named is CAKI-1.

As to `COc1ccc(N2C(=O)/C(=C/c3ccc(N(CCC#N)CCC#N)cc3C)N=C2c2cc([N+](=O)[O-])ccc2Cl)cc1`, the GI50 (commonly the concentration giving 50% growth inhibition) in [1] was 4.5 µM (inactive); in test [2], 6.52 µM (inactive); in [3], 7.59 µM (inactive); in test [4], 5.27 µM (inactive); in test [5], > 46.5 µM (inactive); in test [6], 3.37 µM (inactive). The GI50 in [7] was 3.05 µM (inactive); in test [8], 3.94 µM (inactive); in [9] it was 3.24 µM (inactive); in [10], 4.68 µM (inactive); in test [11] it was 8.13 µM (inactive); in test [12] it was 3.3 µM (inactive). Besides, the GI50 is 5.41 µM (inactive) in [13]; 12.6 µM (inactive) in test [14]; 1.56 µM (inactive) in [15]; 4.73 µM (inactive) in [16]; 11 µM (inactive) in test [17]; 4.7 µM (inactive) in test [18]. Also, the figures for the GI50 in [19] and in test [20] were 5.43 µM (inactive) and 7 µM (inactive), respectively.

As to `Cc1c2ccncc2cc2c1sc1ccncc12`, the GI50 is 0.485 µM (active) in [1]; 3.55 µM (inactive) in test [2]; 2.51 µM (inactive) in [3]; 2.16 µM (inactive) in [4]; 5.71 µM (inactive) in test [5]; 4.56 µM (inactive) in test [6]. The GI50 in test [7] is 1.96 µM (inactive); in [8] it was 1.75 µM (inactive); in test [9], 0.325 µM (active); in test [10], 5.52 µM (inactive); in test [11], 2.74 µM (inactive); in test [12] it was 2.09 µM (inactive). For the same molecule, the GI50 in test [13] is 4.31 µM (inactive); in test [14] it was 3.57 µM (inactive); in [15], 2.67 µM (inactive); in [16] it was 0.468 µM (active); in test [17], 3.66 µM (inactive); in [18] it was 1.86 µM (inactive). For the same molecule, the GI50 in [19] is 1.68 µM (inactive); in [20], 2.01 µM (inactive).

Turning to `COc1ccc(NC(=O)c2oc3cc(O)ccc3c(=O)c2C)c([N+](=O)[O-])c1`, the GI50 in [1], in test [2], in test [3], in test [4], in [5] and in test [6] was > 100 µM (inactive) in each case. Also, the GI50 in [7], in [8], in test [9], in test [10], in [11] and in test [12] was > 100 µM (inactive) each time. Moreover, the GI50 in test [13], in [16], in test [17], in test [19] and in test [20] was > 100 µM (inactive) throughout.

With `CC(=O)Nc1ccc(C2[C@H]3C(=O)N(c4ccc(Cc5ccc(N6C(=O)[C@@H]7ON(c8ccccc8)C(c8ccc(NC(C)=O)cc8)[C@@H]7C6=O)cc5)cc4)C(=O)[C@H]3ON2c2ccccc2)cc1` (some centres undefined), the GI50 in [1] is > 100 µM (inactive); in test [2], > 100 µM (inactive); in [3], > 100 µM (inactive); in test [4] it was 70.8 µM (inactive); in test [5], > 100 µM (inactive); in test [6] it was > 100 µM (inactive). Moreover, the GI50 in [7], in test [8], in test [9], in test [10], in test [11] and in test [12] was > 100 µM (inactive) throughout. Also, the GI50 was > 100 µM (inactive) in test [13]; > 100 µM (inactive) in test [16]; > 100 µM (inactive) in [17]; 32.6 µM (inactive) in test [19]; 98.2 µM (inactive) in test [20].
